Publication PMC8880714, “Antimicrobial effect and mechanism of bovine lactoferrin against the potato common scab pathogen Streptomyces scabiei” (PLoS ONE, 2022)
Read-outs that look alike come from different tables or passages of the source. One block for each molecule: values may come before it. Where no end group is shown, it is not given here.

Columns and labels:
[1] = tested on: Streptomyces scabiei S58; test: microbe, parasite or virus in culture; type: cell-based
Description: S. scabiei S58, isolated from potatoes grown in Kagoshima, Japan, was used in this study. […] For antimicrobial assays, the spores of the isolate were incubated at 28 °C in tryptic soy broth (TSB) (Becton Dickinson, Sparks, USA). Escherichia coli strains JM109 and BL21(λDE3) were grown at 37 °C in Luria-Bertani broth supplemented with 100 μg/mL ampicillin for propagation.
A 12-well plate was used to assess the antimicrobial activity of LF, hydrolysate, LFcinB, and synthetic peptides. One milliliter of TSB containing each test substance was added to each well and then the spores of S. scabiei S58, prepared as described above, were added into each well at a final concentration of 2 × 10^5 spores/mL. The mixture was incubated at 28 °C for 72 h, and the absorbance was measured at 600 nm to monitor bacterial growth. To further confirm whether the antimicrobial activity is due to growth inhibition or bactericidal effect, 1 mL of TSB containing 2 ×10^3 spores and bLF (1 mg/mL) was incubated at 28 °C and directly cultured on STA after 5, 10, 15, 24, 48, and 72 h of incubation to count the emerging colonies. All assays were performed in duplicate and were repeated three times.

[2] = pH of the medium in which the substance was dissolved; type: physicochemical
Excerpt: On the contrary, in the assay of Trp alone at high concentrations, because Trp cannot bind to the cell surface by itself, only a few numbers could reach the membrane (Fig 8C). In summary, Trp must reach the cell membrane to exert its antimicrobial activity. We speculated that the change in the chemical structures and properties of Arg and Trp may affect their antimicrobial activity, that is, the ability to bind to the bacterial cell surface. Therefore, we used Arg and Trp derivatives, namely arginine hydrochloride, tryptophan methyl ester hydrochloride, and tryptophan ethyl ester hydrochloride, which are easily available. Intriguingly, arginine hydrochloride completely lost the antimicrobial activity against S. scabiei shown by Arg (Fig 7A and 7C). Sephai et al. (2017) reported that the antimicrobial activity of poly-arginine is influenced by pH; at mild acidic pH (5 and 6), its MIC values decreased. We measured the pH of the medium in which arginine or arginine hydrochloride was dissolved and found it to be 9.5 and 5.5, respectively. Streptomyces spp. can grow at pH values ranging from 4.0 to 11.5 [63]. Teichoic and lipoteichoic acids in gram-positive bacterial cell walls are esterified to D-Ala residues and at neutral or lower pH, the amino group of D-Ala (pKa 8.42) is protonated, conferring a neutral or positive charge to the cell walls. […]

[3] = spores 2 × 10^5/mL, TSB, 28 °C, 72 h, absorbance 600 nm
[4] = S. scabiei S58 spores 2 × 10^5/mL, TSB, 28 °C, 72 h, absorbance 600 nm, probit analysis, mean ± SD, n = 3, N/A = no antimicrobial activity, read-out: Antimicrobial activity (IC50)

Molecule: RRRQRR [Synthetic peptide containing no Trp residue]
Antimicrobial activity, in words [1, 3]: completely lost its activity

IC50 ([1]; 72 h): 0.027 ± 0.002 mM
Molecule: RRWWWR [RRWWWR]

Molecule: CC[C@H](C)[C@@H]1NC(=O)[C@H](CO)NC(=O)[C@@H]2CCCN2C(=O)[C@H](C)NC(=O)CNC(=O)[C@H](CC(C)C)NC(=O)[C@H](CCCCN)NC(=O)[C@H](CCCCN)NC(=O)[C@H](CCSC)NC(=O)[C@H](CCCNC(=N)N)NC(=O)[C@H](Cc2c[nH]c3ccccc23)NC(=O)[C@H](CCC(N)=O)NC(=O)[C@H](Cc2c[nH]c3ccccc23)NC(=O)[C@H](CCCNC(=N)N)NC(=O)[C@H](CCCNC(=N)N)NC(=O)[C@@H](NC(=O)[C@H](CCCCN)NC(=O)[C@@H](N)Cc2ccccc2)CSSC[C@@H](C(=O)N[C@H](C(=O)N[C@@H](CCCNC(=N)N)C(=O)N[C@@H](CCCNC(=N)N)C(=O)N[C@@H](C)C(=O)N[C@@H](Cc2ccccc2)C(=O)O)C(C)C)NC(=O)[C@H]([C@@H](C)O)NC1=O [Bovine lactoferricin (LFcinB)]
Concentration at which no growth of S. scabiei was observed [1, 3]: 3.2 µM

Molecule: Cl.N=C(N)NCCC[C@H](N)C(=O)O [Arginine hydrochloride]
pH of the medium in which the substance was dissolved [2]: 5.5
Antimicrobial activity, in words [1, 3]: complete loss of activity

Molecule: N=C(N)NCCC[C@H](N)C(=O)O [Arginine]
pH of the medium in which the substance was dissolved [2]: 9.5
IC50 ([1]; Streptomyces scabiei, S58, 72 h, read-out: Antimicrobial activity (IC50)): 14.3 ± 1.4 mM
Concentration necessary to completely inhibit the growth of S. scabiei [1, 3]: 40 mM

Molecule: N[C@@H](Cc1c[nH]c2ccccc12)C(=O)O [Tryptophan]
inhibition at 40000 µM ([1]; Streptomyces scabiei, S58, read-out: Inhibition of growth of S. scabiei): 40%

Molecule: QQWWWQ [Synthetic peptide containing three Trp residues and no Arg residue]
Antimicrobial activity, in words [1, 3]: complete loss of activity

IC50 [1, 4]: 1.303 ± 0.004 mM
Molecule: CCOC(=O)[C@@H](N)Cc1c[nH]c2ccccc12.Cl [Tryptophan ethyl ester hydrochloride]
Antimicrobial activity, in words [1, 3]: much higher activity than that of tryptophan

IC50 [1, 4]: 2.86 ± 0.326 mM
Molecule: COC(=O)[C@@H](N)Cc1c[nH]c2ccccc12.Cl [Tryptophan methyl ester hydrochloride]
Antimicrobial activity, in words [1, 3]: much higher activity than that of tryptophan

IC50 ([1]; 72 h): 0.048 ± 0.009 mM
Molecule: RRWQWR [RRWQWR]
